In patent US20260216197A1, “WRN HELICASE INHIBITOR” (SUZHOU PUHE BIOPHARMA CO., LTD., priority 2022, published 2026):
Where two headings read alike, the source gives them in different places.

Tested on: MSI-H colorectal cancer SW48 cell line
Assay: 2D anti-proliferative activity, MSI-H SW48 cells (CTG, 5 days)
Format: cell-based
Conditions: for inhibition at 38.15 pM: 0.038146973 nM; for inhibition at 0.000152588 µM: 0.152587891 nM; for inhibition at 0.000610352 µM: 0.610351563 nM; for inhibition at 0.00244141 µM: 2.44140625 nM; for inhibition at 0.00976562 µM: 9.765625 nM; for inhibition at 0.0390625 µM: 39.0625 nM; for inhibition at 0.15625 µM: 156.25 nM; for inhibition at 0.625 µM: 625 nM; for inhibition at […]: 2500 nM; for inhibition at 10 µM: 10000 nM
Method in brief: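 SW48 cells in RPMI 1640/10% FBS were exposed to serially varied compound concentrations for 5 days at 37 °C, 5% CO2. Viability was read as ATP-dependent CellTiter-Glo luminescence after 30 min.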

[1] = Homo sapiens, read-out: Average value/ Inhibition rate
[2] = Homo sapiens, read-out: Test 1/ Inhibition rate
[3] = Homo sapiens, read-out: Test 2/ Inhibition rate

`CCc1c(N2CCN(C(=O)c3ncnc(C)c3O)CC2)c(=O)n2nc(C3=CCOCC3)nc2n1CC(=O)Nc1ccc(C(F)(F)F)c2ccoc12` [Compound H22] was tested, and the “inhibitory activity on SW48 cells” value (39 nM) was “high inhibitory activity”, the inhibition at 38.15 pM [1] was -4.19% and the inhibition at 38.15 pM [2] was -1.57%. It also gave an inhibition at 38.15 pM [3] of -6.81%, an inhibition at 0.000152588 µM [1] of 0.206% and an inhibition at 0.000152588 µM [2] of -0.184%. The inhibition at 0.000152588 µM [3] was 0.596%, the inhibition at 0.000610352 µM [1] was -2.48% and the inhibition at 0.000610352 µM [2] was -1.27%. For the same molecule, the inhibition at 0.000610352 µM [3] was -3.7%, the inhibition at 0.00244141 µM [1] was -0.303% and the inhibition at 0.00244141 µM [2] was 2.69%. It also gave an inhibition at 0.00244141 µM [3] of -3.3%, an inhibition at 0.00976562 µM [1] of -6.3% and an inhibition at 0.00976562 µM [2] of -5.49%. The inhibition at 0.00976562 µM [3] was -7.12%, the inhibition at 0.0390625 µM [1] was 29.2% and the inhibition at 0.0390625 µM [2] was 28.4%. The inhibition at 0.0390625 µM [3] was 30%, the inhibition at 0.15625 µM [1] was 98% and the inhibition at 0.15625 µM [2] was 98.4%. The inhibition at 0.15625 µM [3] was 97.6%, the inhibition at 0.625 µM [1] was 98.1% and the inhibition at 0.625 µM [2] was 98.3%. The inhibition at 0.625 µM [3] was 97.9%, the inhibition at […] [1] was 99.6% and the inhibition at […] [2] was 99.9%. The inhibition at […] [3] was 99.2%, the inhibition at 10 µM [1] was 101% and the inhibition at 10 µM [2] was 102%. For the same molecule, the inhibition at 10 µM [3] was 101% and the IC50 (Homo sapiens, 120 h, 5 days) was 47 nM.
